The text below walks through data of ChEMBL document CHEMBL1158509, “Novel selective thiazoleacetic acids as CRTH2 antagonists developed from in silico derived hits. Part 2” (Bioorg Med Chem Lett, 2010).

For data set [1], the target named is T1, Prostaglandin D2 receptor 2 (Homo sapiens, UniProt Q9Y5Y4).
T1 sequence (Q9Y5Y4 whole entry): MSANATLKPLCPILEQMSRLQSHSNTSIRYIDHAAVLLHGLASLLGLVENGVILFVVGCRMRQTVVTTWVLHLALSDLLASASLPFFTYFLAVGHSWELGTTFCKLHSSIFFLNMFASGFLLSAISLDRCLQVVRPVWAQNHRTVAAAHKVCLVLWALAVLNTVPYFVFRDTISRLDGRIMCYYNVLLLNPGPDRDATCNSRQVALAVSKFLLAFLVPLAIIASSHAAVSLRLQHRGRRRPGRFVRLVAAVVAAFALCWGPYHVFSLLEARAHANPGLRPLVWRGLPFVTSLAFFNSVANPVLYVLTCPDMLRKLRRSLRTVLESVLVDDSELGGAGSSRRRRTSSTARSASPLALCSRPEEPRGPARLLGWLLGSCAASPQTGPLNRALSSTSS
As to the kind of experiment: Displacement of[3H]PGD2 from human CRTH2 receptor expressed in […] cells. The class given is cell-based.

In data set [2] the target is T1, Prostaglandin D2 receptor 2. As to the kind of experiment: Antagonist activity at human CRTH2 receptor expressed in […] cells assessed as inhibition of beta arrestin translocation by bioluminescence resonance energy transfer assay. It counts as functional, cell-based.
Data set [3] in a line: Aqueous solubility at pH 1. The class given is physicochemical.
Data set [4] can be described thus: Octanol-water distribution coefficient, log D at pH 7.4. The class given is physicochemical.
Data set [5] can be described thus: Metabolic stability in rat liver S9 fraction assessed as compound remaining. It counts as ADME, subcellular.
Data set [6] is described as follows: Metabolic stability in human liver S9 fraction assessed as compound remaining. The class given is ADME, subcellular.
The target of another data set is CYP2D6 (Homo sapiens, UniProt P10635). The experiment in a line: Inhibition of CYP2D6 at 1 uM. It counts as ADME.
For a further data set, the target named is CYP3A4 (Homo sapiens, UniProt P08684). As to the kind of experiment: Inhibition of CYP3A4 at 1 uM. The class given is ADME.
Data set [7] is described as follows: Half life in rat. The class given is ADME, organism-based. The note with it: in vivo.
Data set [8] in a line: Clearance in rat. It counts as ADME, organism-based. As to conditions: in vivo.
Data set [9] can be described thus: Bioavailability in rat. It counts as ADME, organism-based. As to conditions: in vivo.
The target in data set [10] is T2, Prostaglandin D2 receptor 2 (Homo sapiens) (UniProt Q9Y5Y4).
T2 sequence (whole entry): T1 sequence (Q9Y5Y4 whole entry)
As to the kind of experiment: Antagonist activity at human CRTH2 receptor expressed in […] cells assessed as inhibition of beta arrestin translocation by bioluminescence resonance energy transfer assay relative to control. The class given is functional, cell-based.

Data set [11] deals with T1, Prostaglandin D2 receptor 2. The experiment in a line: Displacement of[3H]PGD2 from human CRTH2 receptor expressed in african green monkey COS7 cells. The class given is cell-based, COS-7.

Converted amounts (≈) assume the structure as drawn. A value given as a limit tells only on which side of the number the result lay.

CYP3A4, sequence (P08684 whole entry): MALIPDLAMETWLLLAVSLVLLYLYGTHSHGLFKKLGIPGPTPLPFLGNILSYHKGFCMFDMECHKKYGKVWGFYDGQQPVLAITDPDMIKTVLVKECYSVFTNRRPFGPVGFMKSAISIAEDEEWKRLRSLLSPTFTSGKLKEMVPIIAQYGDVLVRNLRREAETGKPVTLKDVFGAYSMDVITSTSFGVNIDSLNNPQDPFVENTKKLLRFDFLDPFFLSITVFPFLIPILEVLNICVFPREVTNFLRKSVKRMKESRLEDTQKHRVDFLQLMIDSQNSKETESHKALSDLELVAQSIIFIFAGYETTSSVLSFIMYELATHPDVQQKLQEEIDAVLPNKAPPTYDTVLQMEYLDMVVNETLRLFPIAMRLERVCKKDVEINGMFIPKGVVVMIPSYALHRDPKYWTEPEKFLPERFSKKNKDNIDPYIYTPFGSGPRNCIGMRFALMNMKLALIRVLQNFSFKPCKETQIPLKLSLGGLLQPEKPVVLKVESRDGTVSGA
CYP2D6, sequence (P10635 whole entry): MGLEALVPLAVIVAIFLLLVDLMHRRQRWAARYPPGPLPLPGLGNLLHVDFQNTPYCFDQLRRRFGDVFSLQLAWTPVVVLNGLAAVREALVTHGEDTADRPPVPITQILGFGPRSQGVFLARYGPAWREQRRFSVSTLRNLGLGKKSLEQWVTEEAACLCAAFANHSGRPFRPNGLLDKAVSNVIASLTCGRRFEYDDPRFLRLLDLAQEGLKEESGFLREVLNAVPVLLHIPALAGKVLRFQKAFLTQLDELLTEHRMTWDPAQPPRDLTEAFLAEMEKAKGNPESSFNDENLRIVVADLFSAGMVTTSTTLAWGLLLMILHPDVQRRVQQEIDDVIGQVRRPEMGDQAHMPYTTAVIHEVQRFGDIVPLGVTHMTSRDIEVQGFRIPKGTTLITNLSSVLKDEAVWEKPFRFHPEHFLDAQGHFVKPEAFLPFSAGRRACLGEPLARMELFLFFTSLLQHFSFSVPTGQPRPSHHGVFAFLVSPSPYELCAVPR

Turning to `COc1ccc(C(c2ccccc2)c2nc(-c3ccc(F)cc3)c(CC(=O)O)s2)cc1` (stereo not drawn), the values for the IC50 in data set [1] and in [2] were 3.6 nM and 31 nM, respectively. The molecule also returned a solubility in data set [3] of 40 µM (≈ 17.3 µg/mL). In [4], the logD amounted to 3. The Stability in data set [5] amounted to 0%; in [6], 3.3%. The figures for the inhibition at 1 µM at CYP2D6 and on CYP3A4 were 5.8% and 4.4%, respectively. In data set [7], the half-life is 8.5 h. The molecule further yielded a clearance in data set [8] of 70 mL/min/kg. The bioavailability in data set [9] came to 81%. Further, the Efficacy in data set [10] turned out to be 80%.

As for `NS(=O)(=O)c1ccc(-c2nc(C(c3ccc(F)cc3)c3ccc(F)cc3)sc2CC(=O)O)cc1`, the IC50 in data set [1] was 1500 nM; in data set [2], more than 100000 nM. The Efficacy in data set [10] was determined as 80%.

Take `O=C(O)Cc1sc(-c2ccco2)nc1-c1ccc(Cl)cc1`: the IC50 in [2] came to 3800 nM; in data set [11] it was 550 nM. In addition, the Efficacy in data set [10] worked out at 50%.

For the molecule `O=C(O)Cc1sc(C(c2ccccc2)c2ccc(F)cc2)nc1-c1ccc(Cl)cc1` (stereo not drawn), the IC50 in data set [1] is 17 nM; in data set [2], 36 nM. The Efficacy in data set [10] came to 80%.

Turning to `O=C(O)Cc1sc(CC(c2ccccc2)c2ccccc2)nc1-c1ccc(Cl)cc1`, the IC50 in data set [1] was 340 nM; in [2], 32000 nM. Besides, the Efficacy in data set [10] stood at 50%.

Consider `O=C(O)Cc1sc(Nc2cccc3ccccc23)nc1-c1ccc(Cl)cc1`, for which the IC50 in data set [1] is 150 nM; in data set [2], 96 nM. Besides, the Efficacy in [10] turned out to be 50%.

Consider `Nc1cc(-c2nc(C(c3ccc(F)cc3)c3ccc(F)cc3)sc2CC(=O)O)ccn1`, for which the results for the IC50 in data set [1] and in data set [2] were 4.8 nM and 64 nM, respectively. In addition, the Efficacy in data set [10] turned out to be 80%.

Turning to `O=C(O)Cc1sc(C(c2ccccc2)c2cccc(Cl)n2)nc1-c1ccc(Cl)cc1` (stereo not drawn), the figures for the IC50 in [1] and in [2] were 3200 nM and more than 100000 nM, respectively. In addition, in data set [10], the Efficacy was 80%.

In the case of `N#Cc1cccc(-c2nc(C(c3ccc(F)cc3)c3ccc(F)cc3)sc2CC(=O)O)c1`, the figures for the IC50 in data set [1] and in data set [2] were 20 nM and 220 nM, respectively. The Efficacy in data set [10] is 80%.

For `O=C(O)Cc1sc(C(c2ccccc2)c2ccc(Cl)cc2)nc1-c1ccc(Cl)cc1` (stereo not drawn), the IC50 in data set [1] is 45 nM; in data set [2], 75 nM. In addition, in data set [10], the Efficacy is 80%.

With `O=C(O)Cc1sc(C(c2ccc(F)cc2)c2ccc(F)cc2)nc1-c1ccco1`, the IC50 in [1] was determined as 18 nM; in data set [2], 140 nM. The Efficacy in [10] was determined as 80%.

Take `O=C(O)Cc1sc(C(c2ccccc2)C2CCCCC2)nc1-c1ccc(Cl)cc1` (stereo not drawn): the IC50 in data set [1] is 530 nM; in data set [2], more than 100000 nM. For the same molecule, the Efficacy in data set [10] amounted to 50%.

Consider `O=C(O)Cc1sc(CS(=O)(=O)c2ccc(Cl)cc2)nc1-c1ccc(Cl)cc1`, for which the results for the IC50 in [1] and in data set [2] were 1500 nM and 730 nM, respectively. Moreover, the Efficacy in [10] turned out to be 30%.

In the case of `O=C(O)Cc1sc(C(c2ccc(F)cc2)c2ccc(F)cc2)nc1-c1ccncc1`, the values for the IC50 in data set [1] and in [2] were 5.3 nM and 40 nM, respectively. Besides, the Efficacy in data set [10] amounted to 80%.

On to `N#Cc1cc(-c2nc(C(c3ccc(F)cc3)c3ccc(F)cc3)sc2CC(=O)O)ccc1F`, for which the IC50 worked out at 57 nM in data set [1] and 520 nM in [2]. Also, the Efficacy in data set [10] worked out at 80%.

Consider `O=C(O)Cc1sc(C2(c3ccccc3)CCNCC2)nc1-c1ccc(Cl)cc1`, for which the IC50 in data set [1] was 2900 nM; in [2], more than 100000 nM. Further, the Efficacy in [10] is 50%.

Turning to `Cc1cc(-c2nc(C(c3ccc(F)cc3)c3ccc(F)cc3)sc2CC(=O)O)ccn1`, the results for the IC50 in [1] and in data set [2] were 3.1 nM and 53 nM, respectively. In addition, in data set [10], the Efficacy turned out to be 80%.

Turning to `O=C(O)Cc1sc(C(c2ccc(F)cc2)c2ccc(F)cc2)nc1-c1ccn[nH]1`, the IC50 in [1] was determined as 280 nM; in data set [2] it was 3300 nM. For the same molecule, the Efficacy in data set [10] came to 30%.

Take `CS(=O)(=O)c1cccc(-c2nc(C(c3ccc(F)cc3)c3ccc(F)cc3)sc2CC(=O)O)c1`: the IC50 in [1] stood at 590 nM; in [2] it was 6300 nM. The Efficacy in data set [10] turned out to be 30%.

Regarding `Nc1nc(-c2ccc(Cl)cc2)c(CC(=O)O)s1`, the IC50 in [1] and in data set [2] was more than 100000 nM in each case. For the same molecule, in data set [10], the Efficacy is 50%.

Turning to `COc1ccc(Cl)cc1-c1nc(C(c2ccccc2)c2ccccc2)sc1CC(=O)O`, the IC50 is 9400 nM in data set [1] and more than 100000 nM in data set [2]. Moreover, in [10], the Efficacy was 80%.

With `CC(=O)N1CCC(c2ccccc2)(c2nc(-c3ccc(Cl)cc3)c(CC(=O)O)s2)CC1`, the IC50 in data set [1] amounted to 52 nM; in data set [2], 550 nM. Moreover, in data set [10], the Efficacy is 50%.

With `O=C(O)Cc1sc(NCCc2ccccc2)nc1-c1ccc(Cl)cc1`, the IC50 in data set [1] stood at 650 nM; in data set [2], 390 nM. Moreover, the Efficacy in [10] came out at 50%.

In the case of `O=C(O)Cc1sc(COc2ccc(Cl)cc2)nc1-c1ccc(Cl)cc1`, the IC50 was 32 nM in [1] and 370 nM in [2]. In addition, the Efficacy in data set [10] is 50%.

Turning to `Nc1cc(-c2nc(C(c3ccc(F)cc3)c3ccc(F)cc3)sc2CC(=O)O)cc(F)n1`, the IC50 came out at 220 nM in [1] and 1400 nM in [2]. Moreover, in data set [10], the Efficacy amounted to 30%.

As to `Cc1nc(-c2ccc(Cl)cc2)c(CC(=O)O)s1`, the values for the IC50 in data set [2] and in [11] were 41000 nM and 5500 nM, respectively. Moreover, the Efficacy in [10] was determined as 50%.

As to `O=C(O)Cc1sc(C(c2ccc(F)cc2)c2ccc(F)cc2)nc1-c1cccc(F)c1`, the IC50 in data set [1] is 1.4 nM; in data set [2] it was 18 nM. In data set [10], the Efficacy is 80%.

For the molecule `COc1cc(-c2nc(C(c3ccc(F)cc3)c3ccc(F)cc3)sc2CC(=O)O)ccn1`, the IC50 in data set [1] turned out to be 29 nM; in [2], 380 nM. In data set [10], the Efficacy amounted to 60%.
